The numbers were not newly measured in patent publication US9730971B2 (priority 2008, dated 2017), which cites them from elsewhere.

Structures are written as SMILES.

Details in all cases: reported in Non Patent Literature 2
Data set [1] deals with Gram-positive bacteria such as Staphylococcos aureus, Streptococcus mutans, Bacillus subtilis, and Bacillus ammoniagenes.
Data set [2] concerns Gram-negative bacteria such as Escherichia coli, Enterobacter aerogenes, and Pseudomonas aeruginosa.
Data set [3] has as its system fungi such as Saccharomyces cerevisiae, Candida utilis, and Penichillium chrysogenum.

Consider `CCCCCCCCCCCCCCCc1cccc(O)c1C(=O)O` [anacardic acid], for which the antimicrobial action result in data set [1] was “antimicrobial action”; in data set [2] it was “no antimicrobial action”; in data set [3], “no antimicrobial action”.
